Molecules are shown by their SMILES. Entries after “also recorded” stand apart in the source; their conditions may differ.

Assay [1] has as its target T1, E3 ligases interacting with V5-TurboID-CDK9 (Homo sapiens, UniProt Q14145).
T1 construct: The biotinylated proteins identified by MS in 293T cells; expressed in transfected cells; host or cells: 293T
The experiment in a line: TurboID-bait assay (V5-TurboID-CDK9 in 293T cells) with LC-MS/MS or immunoblot. It is filed as cell-based. The following applies: with vs without 955, biotin present. The source says: (§1) Construction of the pcDNA3-V5-TurboID-CDK9 plasmid. To build the TurboID-bait assay, we first constructed a V5-TurboID-tagged CDK9 plasmid (pDL2518) through Gibson assembly method. The template plasmids HA-CDK9 (a gift from Andrew Rice, plasmid #28102) and V5-TurboID-NES_pCDNA3 (a gift from Alice Ting, plasmid #107169) were purchased from Addgene. The primer pair (5′-cagtctgcggtctgccgaaaagctgcag[…]-3′ and 5′-cagggtcaggcgctccaggggaggcag[…]-3′) and the template HA-CDK9 were used to clone the CDK9 fragment. The two primer pairs: pair-1 (5′-[…]ctgcctcccctggagcgcctgaccctg-3′ and 5′-[…]-3′); pair-2 (5′-[…]-3′ and 5′-[…]ctgcagcttttcggcagaccgcagactg-3′) and the template V5-TurboID-NES_pCDNA3 were used to clone the V5-TurbolD fragment. The PCR fragments were assembled using NEBuilder® HiFi DNAAssembly Master Mix (Cat. No. E2621, NEB, Ipswich, MA, USA). DNA sequences in all these plasmids were authenticated by automatic sequencing.
(§2) TurboID-bait assay. 293T (6×10^5 for WB detection and 1.2×10^6 for MS) cells were transfected with plasmid V5-TurboID-CDK9 using Lipofectamine 2000 as previously described (Lv et al., 2021). […] Then the cells were harvested and lysed in 1×PBS buffer (Cat. #D1408, Sigma-Aldrich). After centrifugation at 20,000×g for 60 min at 4° C., the supernatant soluble fraction was used for further analysis. […]
(In general: A western blot detects proteins with antibodies after separation by electrophoresis.)

The subject of assay [2] is E3 ligases interacting with V5-TurboID-CDK9. Described as above. It is filed as cell-based, Human. The following applies: MS of biotinylated proteins with vs without 955.
Excerpt: as §1, §2

The next assay concerns the target CDK9 (Homo sapiens, UniProt P50750). The assay is described as follows: CDK9 degradation in MOLT4 cells (immunoblot). Set-up: endogenous in cells; host or cells: MOLT4, 293T, K562, NCI-H1299, LNCaP. It is filed as cell-based. The protocol:
All the cell lines were maintained in a humidified incubator at 37° C. and 5% CO2.
Data analysis was performed using GraphPad Prism software (version 9) unless indicated otherwise. All graphs presented represent the mean±standard deviation of the mean (SD) unless otherwise stated.

Sequence of CDK9 (P50750 whole entry): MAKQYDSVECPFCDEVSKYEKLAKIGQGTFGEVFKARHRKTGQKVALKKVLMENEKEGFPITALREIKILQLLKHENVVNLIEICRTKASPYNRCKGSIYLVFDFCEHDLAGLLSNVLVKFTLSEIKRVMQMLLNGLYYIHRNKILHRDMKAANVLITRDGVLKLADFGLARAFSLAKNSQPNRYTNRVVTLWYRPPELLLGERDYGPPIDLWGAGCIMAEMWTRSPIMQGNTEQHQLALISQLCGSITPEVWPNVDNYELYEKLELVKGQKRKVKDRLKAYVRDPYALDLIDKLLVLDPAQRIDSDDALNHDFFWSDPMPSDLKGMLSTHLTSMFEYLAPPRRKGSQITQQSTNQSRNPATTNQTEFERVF
T1 sequence (Q14145 whole entry): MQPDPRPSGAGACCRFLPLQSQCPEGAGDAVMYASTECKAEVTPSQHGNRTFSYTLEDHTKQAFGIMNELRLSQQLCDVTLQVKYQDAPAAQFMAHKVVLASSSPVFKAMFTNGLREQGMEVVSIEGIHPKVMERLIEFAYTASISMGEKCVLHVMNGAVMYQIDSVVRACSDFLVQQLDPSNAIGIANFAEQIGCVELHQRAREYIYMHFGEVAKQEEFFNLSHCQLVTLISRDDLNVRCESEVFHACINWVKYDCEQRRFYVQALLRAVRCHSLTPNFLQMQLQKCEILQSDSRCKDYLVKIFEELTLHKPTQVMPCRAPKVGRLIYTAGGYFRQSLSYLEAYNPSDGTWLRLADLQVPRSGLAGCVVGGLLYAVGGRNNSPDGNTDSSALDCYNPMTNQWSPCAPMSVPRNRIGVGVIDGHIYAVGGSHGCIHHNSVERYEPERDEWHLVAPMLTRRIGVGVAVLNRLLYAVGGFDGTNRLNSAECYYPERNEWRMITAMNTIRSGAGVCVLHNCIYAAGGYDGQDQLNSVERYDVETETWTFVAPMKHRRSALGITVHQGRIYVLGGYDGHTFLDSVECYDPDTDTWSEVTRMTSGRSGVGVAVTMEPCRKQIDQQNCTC
T1 sequence (P50750 whole entry partner): as the sequence (P50750 whole entry) above

As for `COc1cc(/C=C/C(=O)N2CCC=CC2=O)cc(OC)c1OCCN1CCN(C(=O)CN2CCC(C(=O)Nc3ncc(SCc4ncc(C(C)(C)C)o4)s3)CC2)CC1` [compound 955, (E)-N-(5-(((5-(tert-butyl)oxazol-2-yl)methyl)thio)thiazol-2-yl)-1-(2-(4-(2-(2,6-dimethoxy-4-(3-oxo-3-(6-oxo-3,6-dihydropyridin-1(2H)-yl)prop-1-en-1-yl)phenoxy)ethyl)piperazin-1-yl)-2-oxoethyl)piperidine-4-carboxamide], the “KEAP1 pulled down (immunoblot validation)” value in assay [1] was “more KEAP1 could be pulled down; also recorded: significantly more KEAP1 can be pulled down”. In assay [2], the “number of E3 ligases recruited to CDK9” value amounted to 6. For the same molecule, on CDK9, the “955-induced CDK9 degradation after pre-treatment with PL or SNS-032” value is “fully blocked”, the “955-induced CDK9 degradation after pre-treatment with autophagy/lysosome inhibitor Baf-A1 or chloroquine” value is “could not block CDK9 degradation; also recorded: does not block CDK9 degradation”, the “955-induced CDK9 degradation after pre-treatment with neddylation inhibitor MLN4924” value is reported as “could be blocked; also recorded: blocks 955-induced CDK9 degradation” and the “955-induced CDK9 degradation after pre-treatment with pan-caspase inhibitor QVD” value is given as “could not block CDK9 degradation; also recorded: does not block CDK9 degradation”. In addition, at CDK9, the “955-induced CDK9 degradation after pre-treatment with proteasome inhibitor MG132 or bortezomib” value is “could be blocked; also recorded: can be blocked”; the “955-induced CDK9 degradation with E1 inhibitors PYR-41 and TAK-243” value is given as “E1-dependent”; the “955-induced CDK9 degradation with KEAP1 inhibitors CDDO-ME, CDDO-IM or DMF” value was “completely blocked”. Further, the “duration of CDK9 degradation effect in the time course” value at CDK9 (955 at 0.1 μM) is on record as “at least 48 hours”. Besides, at CDK9 (955 at 0.1 μM, time course), the “time at which CDK9 was completely degraded” value stood at 8 h and the “time to almost complete degradation of CDK9” value is at most 8 h. Besides, the “CDK9 degradation with short-term treatment” value at CDK9 (6 h treatment) is on record as “potently degraded CDK9; also recorded: able to potently degrade CDK9”. Moreover, half-maximal degradation at CDK9 (16 h treatment, from ImageJ-quantified Western blots) (DC50) was put at 9 nM. For the same molecule, the CDK9 degradation result on CDK9 (immunoblot) is “only 955, degraded CDK9; also recorded: can induce CDK9 degradation”. Moreover, the “duration of CDK9 degradation after removal (washout) of 955” value at CDK9 (washout) is recorded as “up to 18 h”.

The values are drawn from US20250057963A1, “DISCOVERY OF PIPERLONGUMINE AS A NOVEL E3 LIGASE LIGAND” (University of Florida Research Foundation, Incorporated, priority 2021, published 2025).
